Source: the supplement of paper PMC10307832

Legend:
Experiment in all cases: relative viability (nuclei count vs DMSO), 5 days (fraction); higher = more cells survive
4EGI-1 + AZD7762 = compound: O=C(O)C(Cc1ccccc1[N+](=O)[O-])=NNc1nc(-c2ccc(Cl)c(Cl)c2)cs1 (mixture of isomers) [4EGI-1] + NC(=O)Nc1cc(-c2cccc(F)c2)sc1C(=O)N[C@H]1CCCNC1 [AZD7762] (partner 0.2 µM)
How it was run: (§1)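 Lung cancer cell lines were seeded in 1536-well plates and dosed by pin tool the next day, with either a single drug or a fixed anchor-drug dose combined with five library-drug doses (not always all listed) spaced in √10 steps. Five days later, one step fixed the cells and stained their nuclei (final 0.05% Triton X-100, 1% formaldehyde, 1 ug/ml Hoechst), and nuclei were counted on 4× images. Relative viability is the nuclei count in treated wells divided by the count in vehicle wells, and each value is the median of duplicate plates.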

4EGI-1 + Bortezomib = compound: O=C(O)C(Cc1ccccc1[N+](=O)[O-])=NNc1nc(-c2ccc(Cl)c(Cl)c2)cs1 (mixture of isomers) [4EGI-1] + CC(C)C[C@H](NC(=O)[C@H](Cc1ccccc1)NC(=O)c1cnccn1)B(O)O [Bortezomib] (partner 0.002 µM)
How it was run: as §1

XMD8-85 + Palbociclib = compound: CN1CCN(CC1)C2=CC(=C(C=C2)NC3=NC=C4C(=N3)N(C5=CC=CC=C5C(=O)N4C)C)OC [XMD8-85] + CC(=O)c1c(C)c2cnc(Nc3ccc(N4CCNCC4)cn3)nc2n(C2CCCC2)c1=O [Palbociclib] (partner 0.5 µM)
How it was run: as §1

XMD8-85 + Linsitinib = compound: CN1CCN(CC1)C2=CC(=C(C=C2)NC3=NC=C4C(=N3)N(C5=CC=CC=C5C(=O)N4C)C)OC [XMD8-85] + C[C@]1(O)C[C@@H](c2nc(-c3ccc4ccc(-c5ccccc5)nc4c3)c3c(N)nccn32)C1 [Linsitinib] (partner 1 µM)
How it was run: as §1

## NCI-H1792
4EGI-1 + AZD7762; first compound 0.5 µM
  relative viability: 0.67
4EGI-1 + AZD7762; first compound 1.581 µM
  relative viability: 0.822
4EGI-1 + AZD7762; first compound 5 µM
  relative viability: 0.861
4EGI-1 + AZD7762; first compound 15.81 µM
  relative viability: 0.657
4EGI-1 + AZD7762; first compound 50 µM
  relative viability: 0.0923
4EGI-1 + Bortezomib; first compound 0.5 µM
  relative viability: 0.916
4EGI-1 + Bortezomib; first compound 1.581 µM
  relative viability: 0.392
4EGI-1 + Bortezomib; first compound 5 µM
  relative viability: 0.933
4EGI-1 + Bortezomib; first compound 15.81 µM
  relative viability: 0.89
4EGI-1 + Bortezomib; first compound 50 µM
  relative viability: 0.904
XMD8-85 + Palbociclib; first compound 0.253 µM
  relative viability: 0.642
XMD8-85 + Palbociclib; first compound 2.53 µM
  relative viability: 0.835
XMD8-85 + Palbociclib; first compound 8 µM
  relative viability: 0.551
XMD8-85 + Linsitinib; first compound 0.08 µM
  relative viability: 0.47
XMD8-85 + Linsitinib; first compound 0.253 µM
  relative viability: 0.521
XMD8-85 + Linsitinib; first compound 2.53 µM
  relative viability: 0.463
XMD8-85 + Linsitinib; first compound 8 µM
  relative viability: 0.556
